Where two headings read alike, the source gives them in different places.
Columns and labels:
human 5-HT3 receptor = human 5-HT3 receptor (Homo sapiens (Human), UniProt P46098); experiment: radioligand binding assay (SPA format), [9-methyl-3H]BRL-43694 displacement
Procedure: The relative affinity of the various compounds for the human 5-HT3 receptor was measured in a radioligand binding assay, using a scintillation proximity assay (SPA) format. Test compounds were dissolved to 10 mM in 100% DMSO, then serially diluted at 10× assay concentrations in 100% DMSO in 96-well polypropylene plates and further diluted to 4× assay concentrations with the assay buffer. […] Binding reactions were set up in wells of PicoPlates-96 (Perkin Elmer, Waltham, Mass.) by adding consecutively 50 μL, of each competing compound or buffer, SPA beads, the radioligand and 5-HT3 receptor membranes. After an overnight incubation at room temperature on a Nutator mixer, plates were centrifuged for 15 min at 1,500 rpm, followed by incubation in the dark for 30 min. Radioactivity was counted in the TopCount microplate counter (Perkin Elmer) for 5 min. […] Specific binding was determined by subtracting nonspecific binding from total binding. All experiments were performed in duplicate using ten concentrations of competing ligand, with ondansetron included as a control in every run. IC50 values were determined from specific binding data using XLfit4.1 curve fitting software from IDBS Ltd. The inhibition constant (Ki) was calculated from the Cheng Prusoff equation: (Ki=IC50/(1+(L/KD)), where L=concentration of radioligand in the assay, and KD=affinity of the radioligand for the receptor.

[1] = molecular target: recombinant human 5-HT3A receptors (Homo sapiens (Human), UniProt P46098); experiment: agonist activity (Ca2+ fluorescence, Fluo-4) in HEK293 cells expressing the h5-HT3A receptor subunit; type: cell-based; details: for activation at 10 µM: HEK293, read-out: HEK293 h5-HT3A % agonist response
Procedure: Human embryonic kidney (HEK293) cells expressing the h5-HT3A receptor subunit were seeded directly into poly-D-lysine coated, black-walled, clear bottomed, 96 well plates with approximately 1×10^5 cells per well. After 48 hrs incubation in DMEM growth media (100 μL), cells were washed twice (each 200 μL) in Hank's balanced salt solution (Invitrogen) before incubation (1 hr) with Fluo-4 acetoxymethyl (AM) ester (100 μL, 2.5 μM; Molecular Probes). Cells were washed twice (each 200 μL) in Hank's balanced salt solution and incubated for a further 30 mins in Hank's balanced salt solution (100 μL) prior to assay (25° C.). Alteration in [Ca^2+], was measured (relative fluorescence units [RFU]) using a Flexstation (excitation 488 nm and emission 515 nm; frequency of recording 3 sec). After recording for at least 80 sec, vehicle (Hank's balanced salt solution) or drug was automatically administered to the well (50 μL). Baseline was calculated from the 5 data points immediately prior to the first drug administration and the maximum response was that achieved over the 240 sec following drug administration. In all experiments the muscarinic receptor agonist carbachol (1 mM) was added 240 sec after the test drug administration.

5-HT3 receptors = 5-HT3 receptors (Mus musculus (Mouse), UniProt P23979); experiment: von Bezold-Jarisch model in vivo: inhibition of 5-HT induced bradycardia; details: 60 min before 5-HT 0.1 mg/kg IV, highest oral dose tested
Procedure: This is a well characterized and widely used model to assess 5-HT3 receptor function in vivo (King et al., 5-Hydroxtryptamine-3 Receptor Antagonists, CRC Press, pp. 74-75 (1993), which is hereby incorporated by reference in its entirety). Certain compounds (Table 1) were evaluated for their ability to inhibit serotonin induced bradycardia in vivo in the mouse (Saxena et al., Arch. Int. Pharmacodyn., 277:235-252 (1985), which is hereby incorporated by reference in its entirety). Test substances and vehicle [2% Tween 80] were each administered orally to a group of 5 male CD-1(Crl.) mice each weighing 24±2 g. A dosing volume of 10 mL/kg was used. Sixty minutes later, 5-HT (0.1 mg/kg IV)-induced bradycardia was recorded in urethane (2250 mg/kg IP, given 10 minutes before 5-HT)-anesthetized animals.

[2] = human 5-HT3 receptor membranes, 10 nM [3H]BRL-43694, Ki from Cheng Prusoff equation, read-out: h5-HT3A Ki

5-HT3 receptors, sequence (P23979 24-489): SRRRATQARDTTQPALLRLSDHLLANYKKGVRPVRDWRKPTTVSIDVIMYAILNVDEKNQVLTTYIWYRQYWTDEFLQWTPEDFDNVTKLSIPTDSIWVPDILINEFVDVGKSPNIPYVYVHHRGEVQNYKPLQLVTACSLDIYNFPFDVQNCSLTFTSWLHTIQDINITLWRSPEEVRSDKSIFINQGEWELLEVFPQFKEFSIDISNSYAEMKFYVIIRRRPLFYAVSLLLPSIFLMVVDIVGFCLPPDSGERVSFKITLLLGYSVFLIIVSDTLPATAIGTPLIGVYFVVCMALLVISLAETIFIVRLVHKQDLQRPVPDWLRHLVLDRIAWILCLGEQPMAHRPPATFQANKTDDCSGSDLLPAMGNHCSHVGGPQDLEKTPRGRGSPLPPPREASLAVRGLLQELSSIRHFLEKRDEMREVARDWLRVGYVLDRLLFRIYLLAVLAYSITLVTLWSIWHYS
recombinant human 5-HT3A receptors, sequence (P46098 24-478): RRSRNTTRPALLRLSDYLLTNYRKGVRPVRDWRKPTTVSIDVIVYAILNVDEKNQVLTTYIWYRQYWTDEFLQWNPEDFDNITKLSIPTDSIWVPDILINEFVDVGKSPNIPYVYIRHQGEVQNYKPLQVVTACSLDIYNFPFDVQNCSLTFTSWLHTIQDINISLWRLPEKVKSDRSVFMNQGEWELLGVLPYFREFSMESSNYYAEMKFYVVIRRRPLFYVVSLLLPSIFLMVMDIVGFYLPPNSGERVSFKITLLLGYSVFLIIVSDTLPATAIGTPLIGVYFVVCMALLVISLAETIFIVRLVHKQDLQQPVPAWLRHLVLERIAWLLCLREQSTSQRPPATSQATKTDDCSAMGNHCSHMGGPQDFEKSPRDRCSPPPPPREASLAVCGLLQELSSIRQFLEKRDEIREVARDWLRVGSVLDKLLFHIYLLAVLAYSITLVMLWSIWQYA
human 5-HT3 receptor, sequence (P46098 24-478): as above

| SMILES | Ki (human 5-HT3 receptor; [2]) | Ki (human 5-HT3 receptor) | activation at 10 µM [1] | also measured |
| --- | --- | --- | --- | --- |
| O=C1c2cccc3[nH]cc(c23)CCN1[C@@H]1CN2CCC1CC2 [Example 29, (S)-2-(Quinuclidin-3-yl)-2,3,4,6-tetrahydro-1H-azepino[5,4,3-cd]indol-1-one] | 3 nM |  |  | HEK293 h5-HT3A % agonist response ([1]; at 10 μM, normalized to the response of 5-HT (100% at 3 μM), NR = no response): 17%; Inhibition of 5-HT Induced Bradycardia in Mice (5-HT3 receptors; 1 mg/kg oral): 94% @ 1 mg/kg |
| O=C1c2cc(Br)cc3[nH]nc(c23)CN1[C@H]1CN2CCC1CC2 [Example 21] |  | 1 nM |  |  |
| Cn1cc2c3c(cccc31)C(=O)N([C@@H]1CN3CCC1CC3)C2 [Example 4, (S)-5-Methyl-2-(quinuclidin-8-yl)-2,3-dihydropyrrolo[4,3,2-de]isoquinolin-1(5H)-one] | 1 nM |  |  |  |
| Cn1nc2c3c(cccc31)C(=O)N([C@H]1CN3CCC1CC3)C2 [Example 12, (R)-2-Methyl-7-(quinuclidin-3-yl)-7,8-dihydropyrazolo[3,4,5-de]isoquinolin-6(2H)-one] |  | 2 nM | 6% |  |
| CCn1nc2c3c(cccc31)C(=O)N([C@@H]1CN3CCC1CC3)C2 [Example 8, (S)-2-ethyl-7-(quinuclidin-3-yl)-7,8-dihydropyrazolo[3,4,5-de]isoquinolin-6(2H)-one] |  | 1 nM |  |  |
| O=C1c2cccc3[nH]cc(c23)CCN1[C@H]1CN2CCC1CC2 [Example 33, (R)-2-(Quinuclidin-3-yl)-2,3,4,6-tetrahydro-1H-azepino[5,4,3-cd]indol-1-one] | 49 nM |  | 14% |  |
| O=C1c2cccc3c2c(nn3Cc2ccccc2)CN1[C@H]1CN2CCC1CC2 [Example 17] |  | 5 nM |  |  |
| COc1ccc(-n2nc3c4c(cccc42)C(=O)N([C@H]2CN4CCC2CC4)C3)cc1 [Example 20] |  | 57 nM |  |  |
| O=C1c2cccc3[nH]nc(c23)CN1[C@H]1CN2CCC1CC2 [Example 16, (R)-7-(Quinuclidin-3-yl)-7,8-dihydropyrazolo[3,4,5-de]isoquinolin-6(2H)-one] |  |  | 35% |  |
| O=C1c2cccc3c2c(nn3-c2ccc(Cl)cc2)CN1[C@H]1CN2CCC1CC2 [Example 19] |  | 68 nM |  |  |
| CN1C2CCCC1CC(N1CCc3cn(C)c4cccc(c34)C1=O)C2 (stereo not drawn) [Example 37, Endo-6-methyl-2-(9-methyl-9-azabicyclo[3.3.1]nonan-3-yl)-2,3,4,6-tetrahydro-1H-azepino[5,4,3-cd]indol-1-one] | 267 nM |  |  |  |
| CN1C2CCC1CC(N1Cc3nn(C)c4cccc(c34)C1=O)C2 (stereo not drawn) [Example 38, Endo-2-methyl-7-(8-methyl-8-azabicyclo[3.2.1]octan-3-yl)-7,8-dihydropyrazolo[3,4,5-de]isoquinolin-6(2H)-one] |  | 59 nM |  |  |
| O=C1c2cccc3c2c(cn3-c2ccc(F)cc2)CCN1[C@H]1CN2CCC1CC2 [Example 36, (R)-6-(4-fluorophenyl)-2-(quinuclidin-3-yl)-2,3,4,6-tetrahydro-1H-azepino[5,4,3-cd]indol-1-one] |  |  |  | inhibition at 10 µM (human 5-HT3 receptor; 10 μM, read-out: h5-HT3A inhibition @ 10 μM): 49% |
| O=C1c2cccc3c2c(cn3Cc2ccccc2)CCN1[C@H]1CN2CCC1CC2 [Example 35, (R)-6-benzyl-2-(quinuclidin-3-yl)-2,3,4,6-tetrahydro-1H-azepino[5,4,3-cd]indol-1-one] | 13 nM |  |  |  |
| CCn1nc2c3c(cccc31)C(=O)N([C@H]1CN3CCC1CC3)C2 [Example 14, (R)-2-Ethyl-7-(quinuclidin-3-yl)-7,8-dihydropyrazolo[3,4,5-de]isoquinolin-6(2H)-one] |  |  | 4% |  |
| CC(C)n1nc2c3c(cccc31)C(=O)N([C@H]1CN3CCC1CC3)C2 [Example 15, (R)-2-Isopropyl-7-(quinuclidin-3-yl)-7,8-dihydropyrazolo[3,4,5-de]isoquinolin-6(2H)-one] |  |  | 3% |  |
| CN1C2CCCC1CC(N1Cc3nn(C)c4cccc(c34)C1=O)C2 (stereo not drawn) [Example 22, 7-(Endo-N-(9-methyl-9-azabicyclo[3.3.1]nonan-3-yl))-2-methyl-7,8-dihydropyrazolo[3,4,5-de]isoquinolin-6(2H)-one] |  | 34 nM |  |  |
| CN1CC2CCCC1CC(N1Cc3cn(C)c4cccc(c34)C1=O)C2 (stereo not drawn) [Example 5, Endo-5-methyl-2-(9-methyl-9-azabicyclo[3.3.1]nonan-3-yl)-2,3-dihydropyrrolo[4,3,2-de]isoquinolin-1(5H)-one] | 13 nM |  |  |  |
| CC(C)Cn1nc2c3c(cccc31)C(=O)N([C@@H]1CN3CCC1CC3)C2 [Example 9] |  | 2 nM |  |  |
| Cn1nc2c3c(cc(F)cc31)C(=O)N([C@H]1CN3CCC1CC3)C2 [Example 13] |  |  | 6% |  |
| Cc1[nH]cnc1CN1CCc2c(c3ccccc3n2C)C1=O [Alosetron, reference compound] |  |  |  | Inhibition of 5-HT Induced Bradycardia in Mice (5-HT3 receptors; 1 mg/kg oral): 95% @ 1 mg/kg |
| O=C1c2cccc3c2c(cn3Cc2ccccc2)CCN1[C@@H]1CN2CCC1CC2 [Example 32, (S)-6-benzyl-2-(quinuclidin-3-yl)-2,3,4,6-tetrahydro-1H-azepino[5,4,3-cd]indol-1-one] | 1 nM |  |  |  |
| Cn1nc2c3c(cccc31)C(=O)N([C@@H]1CN3CCC1CC3)C2 [Example 6, (S)-2-Methyl-7-(quinuclidin-3-yl)-7,8-dihydropyrazolo[3,4,5-de]isoquinolin-6(2H)-one] |  | 1 nM |  |  |
| Cn1cc2c3c(cccc31)C(=O)N([C@H]1CN3CCC1CC3)CC2 [Example 34, (R)-6-methyl-2-(quinuclidin-3-yl)-2,3,4,6-tetrahydro-1H-azepino[5,4,3-cd]indol-1-one] | 8 nM |  | 13% | Inhibition of 5-HT Induced Bradycardia in Mice (5-HT3 receptors; 3 mg/kg oral): 88% @ 3 mg/kg |
| Cn1cc2c3c(cccc31)C(=O)N([C@@H]1CN3CCC1CC3)CC2 [Example 31, (S)-6-methyl-2-(quinuclidin-3-yl)-2,3,4,6-tetrahydro-1H-azepino[5,4,3-cd]indol-1-one] | 1 nM |  | 5% |  |
| Cn1cc(C(=O)[C@@H]2CCc3nc[nH]c3C2)c2ccccc21 [Ramosetron, reference compound] | 0.06 nM |  |  | Inhibition of 5-HT Induced Bradycardia in Mice (5-HT3 receptors; 0.1 mg/kg oral): 77% @ 0.1 mg/kg |

— patent US8501729B2 (Albany Molecular Research, Inc., priority 2008, dated 2013)
